Measurements taken from PubChem BioAssay AID1963830 (Molecular Pharmacology Branch, DTP, NCI, 2024).

System: 922993-354-T-J3-PDC complex spheroid viability
Assay: Anticancer human tumor 922993-354-T-J3-PDC patient-derived endometrial carcinoma cell line growth inhibition [POLQ]
Settings: for IC50: curve of first compound; for viability, T/C: stronger effect = lower value; active means viability on the fitted dose curve at most 10% of control; inactive means the rest
Method in brief: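 Complex spheroid viability model combining PDC tumour cells with endothelial (HUVEC) and MSC stromal cells. Novobiocin, ART-558 or RP6685 were tested singly and in combination with standard and investigational anticancer drugs. Each was titrated in half-log steps from near clinical Cmax, or from 10 microM where Cmax was unknown.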
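Further: spheroids exposed to the agents for one week.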
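Wherever viability, T/C is given: 100% = DMSO vehicle control wells.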

C=CCn1c(=O)c2cnc(Nc3ccc(N4CCN(C)CC4)cc3)nc2n1-c1cccc(C(C)(C)O)n1 + Nc1ccc(C#CCN(C(=O)Cc2ncc(C(F)(F)F)cc2C(F)(F)F)c2ccc(F)cc2)nn1
inactive: viability, T/C (second compound 0.0316 µM, first compound 0.00316 µM) 105% | viability, T/C (second compound 0.0316 µM, first compound 0.01 µM) 102% | viability, T/C (second compound 0.0316 µM, first compound 0.0316 µM) 101% | viability, T/C (second compound 0.0316 µM, first compound 0.1 µM) 100% | viability, T/C (second compound 0.0316 µM, first compound 0.316 µM) 106% | viability, T/C (second compound 0.0316 µM, first compound 1 µM) 98.5% | viability, T/C (second compound 0.1 µM, first compound 0.00316 µM) 107% | viability, T/C (second compound 0.1 µM, first compound 0.01 µM) 98.5% | viability, T/C (second compound 0.1 µM, first compound 0.0316 µM) 103% | viability, T/C (second compound 0.1 µM, first compound 0.1 µM) 99.6% | viability, T/C (second compound 0.1 µM, first compound 0.316 µM) 104% | viability, T/C (second compound 0.1 µM, first compound 1 µM) 101% | viability, T/C (second compound 0.316 µM, first compound 0.00316 µM) 107% | viability, T/C (second compound 0.316 µM, first compound 0.01 µM) 101% | viability, T/C (second compound 0.316 µM, first compound 0.0316 µM) 97.5% | viability, T/C (second compound 0.316 µM, first compound 0.1 µM) 101% | viability, T/C (second compound 0.316 µM, first compound 0.316 µM) 99.6% | viability, T/C (second compound 0.316 µM, first compound 1 µM) 100% | viability, T/C (second compound 1 µM, first compound 0.00316 µM) 103% | viability, T/C (second compound 1 µM, first compound 0.01 µM) 99% | viability, T/C (second compound 1 µM, first compound 0.0316 µM) 101% | viability, T/C (second compound 1 µM, first compound 0.1 µM) 97.6% | viability, T/C (second compound 1 µM, first compound 0.316 µM) 100% | viability, T/C (second compound 1 µM, first compound 1 µM) 100% | viability, T/C (second compound 3.16 µM, first compound 0.00316 µM) 100% | viability, T/C (second compound 3.16 µM, first compound 0.01 µM) 98.8% | viability, T/C (second compound 3.16 µM, first compound 0.0316 µM) 101% | viability, T/C (second compound 3.16 µM, first compound 0.1 µM) 99.4% | viability, T/C (second compound 3.16 µM, first compound 0.316 µM) 101% | viability, T/C (second compound 3.16 µM, first compound 1 µM) 94.8% | viability, T/C (second compound 10 µM, first compound 0.00316 µM) 96.3% | viability, T/C (second compound 10 µM, first compound 0.01 µM) 92.5% | viability, T/C (second compound 10 µM, first compound 0.0316 µM) 94.5% | viability, T/C (second compound 10 µM, first compound 0.1 µM) 95.8% | viability, T/C (second compound 10 µM, first compound 0.316 µM) 97% | viability, T/C (second compound 10 µM, first compound 1 µM) 55.2%
> 1000 nM: IC50 (second compound 0.0316 µM) | IC50 (second compound 0.1 µM) | IC50 (second compound 0.316 µM) | IC50 (second compound 1 µM) | IC50 (second compound 3.16 µM) | IC50 (second compound 10 µM)
